Experimental data reported in paper PMC7589200, “Identification of Putative Non-Substrate-Based XT-I Inhibitors by Natural Product Library Screening” (Biomolecules, 2020).

molecular target: T1, recombinant human XT-I (Homo sapiens, UniProt Q86Y38); test: NP library inhibitor screening, UPLC/ESI-MS/MS XT-I assay; format: biochemical; conditions: Table 2; 50 μM inhibitor; relative to control (DMSO = 100%); technical duplicates
T1 sequence (Q86Y38 252-959 limits assumed): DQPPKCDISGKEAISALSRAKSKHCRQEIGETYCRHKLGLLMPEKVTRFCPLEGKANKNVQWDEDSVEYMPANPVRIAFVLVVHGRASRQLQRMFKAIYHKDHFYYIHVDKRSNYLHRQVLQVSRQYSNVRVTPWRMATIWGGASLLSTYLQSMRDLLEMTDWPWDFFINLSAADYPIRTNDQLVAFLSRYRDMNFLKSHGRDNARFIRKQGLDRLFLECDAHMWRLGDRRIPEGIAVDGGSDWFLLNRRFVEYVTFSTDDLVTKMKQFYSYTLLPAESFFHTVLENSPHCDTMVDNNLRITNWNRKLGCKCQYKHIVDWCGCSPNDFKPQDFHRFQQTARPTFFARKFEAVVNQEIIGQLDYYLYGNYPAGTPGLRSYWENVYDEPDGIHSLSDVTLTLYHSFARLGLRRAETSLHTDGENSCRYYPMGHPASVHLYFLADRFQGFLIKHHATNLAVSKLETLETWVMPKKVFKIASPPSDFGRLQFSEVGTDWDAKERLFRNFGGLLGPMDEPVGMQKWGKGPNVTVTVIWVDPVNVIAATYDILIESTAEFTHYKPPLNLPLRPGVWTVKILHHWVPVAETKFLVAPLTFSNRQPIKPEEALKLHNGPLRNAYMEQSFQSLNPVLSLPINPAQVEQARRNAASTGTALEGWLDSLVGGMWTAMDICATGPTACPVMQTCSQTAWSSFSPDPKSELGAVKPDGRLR

Structure (SMILES) | XT-I Activity [%]
COc1cc(/C=C/C(=O)CC(=O)/C=C/c2ccc(O)c(OC)c2)ccc1O [Compound 86, Curcumin] | 43

same assay, conditions: Table S1; 50 μM inhibitor; relative to negative control containing DMSO; technical duplicates

Structure (SMILES) | remaining activity at 50 µM [%] | XT-I Activity [%]
COC(=O)[C@H]1[C@H]2C[C@@H]3c4[nH]c5cc(OC)ccc5c4CCN3C[C@H]2C[C@@H](OC(=O)c2cc(OC)c(OC)c(OC)c2)[C@@H]1OC [Compound 38, Reserpine] | 89 | 
C[C@H](CCC(=O)O)[C@H]1CC[C@H]2[C@@H]3[C@@H](O)C[C@@H]4C[C@H](O)CC[C@]4(C)[C@H]3CC[C@]12C [Compound 39, Ursodiol] | 98 | 
O=C(N[C@H](CO)[C@H](O)c1ccc([N+](=O)[O-])cc1)C(Cl)Cl [Compound 40, Chloramphenicol] | 87 | 
CO[C@H]1/C=C/O[C@@]2(C)Oc3c(C)c(O)c4c(O)c(c(/C=N/N5CCN(C)CC5)c(O)c4c3C2=O)NC(=O)/C(C)=C\C=C\[C@H](C)[C@H](O)[C@@H](C)[C@@H](O)[C@@H](C)[C@H](OC(C)=O)[C@@H]1C [Compound 41, Rifampin] | 77 | 
Nc1nc2c(ncn2COCCO)c(=O)[nH]1 [Compound 42, Aciclovir] | 71 | 
C[C@@H]1CN(c2c(F)c(N)c3c(=O)c(C(=O)O)cn(C4CC4)c3c2F)C[C@H](C)N1 [Compound 43, Sparfloxacin] | 89 | 
C[C@@H]1[C@H](O)[C@@H](C)/C=C/C=C/CC/C=C/C=C/C=C/C=C/[C@H](O[C@H]2O[C@@H](C)[C@H](O)[C@@H](N)[C@H]2O)C[C@@H]2O[C@](O)(C[C@@H](O)[C@H](O)CC[C@@H](O)C[C@@H](O)C[C@@H](O)CC(=O)O[C@H]1C)C[C@H](O)[C@H]2C(=O)O [Compound 44, Nystatin (Fungicidin)] |  | 52
O=[N+]([O-])c1cn2c(n1)OC[C@@H](OCc1ccc(OC(F)(F)F)cc1)C2 [Compound 45, PA-824] | 75 | 
C[C@H]1O[C@H](O[C@H]2[C@H](O)[C@@H](O)[C@@H](O[C@H]3[C@H](O)[C@@H](O)C(O)O[C@@H]3CO)O[C@@H]2CO)[C@H](O)[C@@H](O)[C@@H]1N[C@H]1C=C(CO)[C@@H](O)[C@H](O)[C@H]1O (some centres unmarked) [Compound 46, Acarbose] | 92 | 
COc1c(N2CCNC(C)C2)c(F)cc2c(=O)c(C(=O)O)cn(C3CC3)c12 (centres unmarked) [Compound 47, Gatifloxacin] | 98 | 
CN(C)c1cc(NC(=O)CNC(C)(C)C)c(O)c2c1C[C@H]1C[C@H]3[C@H](N(C)C)C(O)=C(C(N)=O)C(=O)[C@@]3(O)C(O)=C1C2=O [Compound 48, Tigecycline] | 59 | 
C=CC1=C(C(=O)O)N2C(=O)[C@@H](NC(=O)/C(=N\O)c3csc(N)n3)[C@H]2SC1 [Compound 49, Cefdinir] | 72 | 
NC(=O)N/N=C/c1ccc([N+](=O)[O-])o1 [Compound 50, Nitrofural] | 104 | 
Nc1ccc(S(N)(=O)=O)cc1 [Compound 51, Sulfanilamide] | 118 | 
CO/N=C(\C(=O)N[C@@H]1C(=O)N2C(C(=O)OCOC(=O)C(C)(C)C)=C(/C=C\c3scnc3C)CS[C@H]12)c1csc(N)n1 [Compound 52, Cefditoren Pivoxil] | 104 | 
CC[C@H]1OC(=O)[C@H](C)[C@@H](O[C@H]2C[C@@](C)(OC)[C@@H](O)[C@H](C)O2)[C@H](C)[C@@H](O[C@@H]2O[C@H](C)C[C@H](N(C)C)[C@H]2O)[C@](C)(O)C[C@@H](C)CN(C)[C@H](C)[C@@H](O)[C@]1(C)O [Compound 53, Azithromycin] | 109 | 
NC(=O)c1cccnc1 [Compound 54, Nicotinamide (Vitamin B3)] |  | 116
C[C@H]1COc2c(N3CCN(C)CC3)c(F)cc3c(=O)c(C(=O)O)cn1c23 [Compound 55, Levofloxacin] | 111 | 
COc1ccc2[nH]cc(CCNC(C)=O)c2c1 [Compound 56, Melatonin] | 99 | 
C[C@@H]1CC[C@H]2[C@@H](C)C(=O)O[C@@H]3O[C@@]4(C)CC[C@@H]1[C@]32OO4 [Compound 57, Artemisinin] | 93 | 
O=c1c(-c2ccc(O)cc2)coc2cc(O)cc(O)c12 [Compound 58, Genistein] | 94 | 
CC(=O)NC[C@H]1CN(c2ccc(N3CCOCC3)c(F)c2)C(=O)O1 [Compound 59, Linezolid] | 103 | 
Clc1ccccc1C(c1ccccc1)(c1ccccc1)n1ccnc1 [Compound 60, Clotrimazole] | 101 | 
Nc1ncnc2c1ncn2[C@@H]1O[C@H](CO)[C@@H](O)[C@H]1O [Compound 61, Adenosine] | 103 | 
C[C@]12CCC(=O)C=C1CC[C@@H]1[C@@H]2[C@@H](O)C[C@@]2(C)[C@H]1CC[C@]2(O)C(=O)CO [Compound 62, Hydrocortisone] | 122 | 
Nc1ccc(S(=O)(=O)Nc2ncccn2)cc1 [Compound 63, Sulfadiazine] | 108 | 

Structure (SMILES) | remaining activity at 50 µM [%] | XT-I Activity [%]
Oc1c(Cl)cc(Cl)c2cccnc12 [Compound 64, Chloroxine] | 121 | 
CC1=CC(=O)c2ccccc2C1=O [Compound 66, Menadione] | 106 | 
COc1cccc2c1C(=O)c1c(O)c3c(c(O)c1C2=O)C[C@@](O)(C(=O)CO)C[C@@H]3O[C@H]1C[C@H](N)[C@H](O)[C@H](C)O1.Cl [Compound 67, Doxorubicin (Adriamycin) HCl] |  | 113
C[C@@H](c1ncncc1F)[C@](O)(Cn1cncn1)c1ccc(F)cc1F [Compound 70, Voriconazole] | 94 | 
CCN1CCN(C(=O)N[C@@H](C(=O)N[C@@H]2C(=O)N3C(C(=O)O)=C(CSc4nnnn4C)CS[C@H]23)c2ccc(O)cc2)C(=O)C1=O [Compound 71, Cefoperazone] | 83 | 
CC1=C(/C=C/C(C)=C/C=C/C(C)=C/C(=O)O)C(C)(C)CCC1 [Compound 72, Tretinoin] | 84 | 
CC(=O)[C@H]1CC[C@H]2[C@@H]3CCC4=CC(=O)CC[C@]4(C)[C@H]3CC[C@]12C [Compound 73, Progesterone] | 113 | 
C[C@H](CCC(=O)O)[C@H]1CC[C@H]2[C@@H]3[C@H](O)C[C@@H]4C[C@H](O)CC[C@]4(C)[C@H]3CC[C@]12C [Compound 75, Chenodeoxycholic Acid] | 113 | 
Cc1ncc([N+](=O)[O-])n1CCO [Compound 76, Metronidazole] | 109 | 
COc1c2occc2cc2ccc(=O)oc12 [Compound 77, Methoxsalen] | 107 | 
O=c1[nH]cc(F)c(=O)[nH]1 [Compound 78, Fluorouracil (5-Fluoracil, 5-FU)] |  | 137
C/C(=C\c1csc(C)n1)[C@@H]1C[C@@H]2O[C@@H]2CCC[C@H](C)[C@H](O)[C@@H](C)C(=O)C(C)(C)[C@@H](O)CC(=O)O1 [Compound 79, Epothilone A] | 119 | 
CCCCCCCCCC(=O)N[C@@H](Cc1c[nH]c2ccccc12)C(=O)N[C@H](CC(N)=O)C(=O)N[C@@H](CC(=O)O)C(=O)N[C@@H]1C(=O)NCC(=O)N[C@@H](CCCN)C(=O)N[C@@H](CC(=O)O)C(=O)N[C@H](C)C(=O)N[C@@H](CC(=O)O)C(=O)NCC(=O)N[C@H](CO)C(=O)N[C@@H]([C@H](C)CC(=O)O)C(=O)N[C@@H](CC(=O)c2ccccc2N)C(=O)O[C@@H]1C [Compound 80, Daptomycin] | 86 | 
N[C@@H](C(=O)N[C@@H]1C(=O)N2C(C(=O)O)=C(Cl)CS[C@H]12)c1ccccc1 [Compound 81, Cefaclor] | 71 | 
COc1cnc(NS(=O)(=O)c2ccc(N)cc2)nc1 [Compound 82, Sulfameter] | 126 | 
C[C@]12CC[C@@H]3c4ccc(O)cc4CC[C@H]3[C@@H]1CCC2=O [Compound 83, Estrone] | 120 | 
C[C@]12CC[C@@H]3c4ccc(O)cc4CC[C@H]3[C@@H]1CC[C@@H]2O [Compound 84, Estradiol] | 128 | 
CCc1cc(C(N)=S)ccn1 [Compound 85, Ethionamide] | 130 | 
COc1cc(/C=C/C(=O)CC(=O)/C=C/c2ccc(O)c(OC)c2)ccc1O [Compound 86, Curcumin] | 43 | 
Clc1ccc(C(Cn2ccnc2)OCc2ccsc2Cl)c(Cl)c1 (centres unmarked) [Compound 87, Tioconazole] | 136 | 
Clc1ccc(COC(Cn2ccnc2)c2ccc(Cl)cc2Cl)c(Cl)c1 (centres unmarked) [Compound 88, Miconazole Nitrate] | 149 | 
Cc1nnc(NS(=O)(=O)c2ccc(N)cc2)s1 [Compound 89, Sulfamethizole] | 111 | 
CC1(C)[C@H](C(=O)O)N2C(=O)C[C@H]2S1(=O)=O [Compound 90, Sulbactam] | 138 | 
COc1cc(NS(=O)(=O)c2ccc(N)cc2)nc(OC)n1 [Compound 91, Sulphadimethoxine] |  | 132
Cl.N=c1ccn2c(n1)O[C@H]1[C@H](O)[C@@H](CO)O[C@H]12 [Compound 92, Cyclocytidine HCl] |  | 142
Cl.Nc1ncnc2nc[nH]c12 [Compound 93, Adenine HCl] |  | 146
